Source: ChEMBL document CHEMBL1201862, “PubChem BioAssay data set” (2004)
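Five compound concentrations were applied to cells in 96-well plates for 48 hours; endpoints were derived by simple linear interpolation of the resulting dose-response curve. GI50: concentration for 50% inhibition of growth.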 Activity calls are given as the source filed them. Rule as the data show it: active = GI50 up to about 1.1 µM and inactive = higher.

Columns and labels:
Experiment in all cases: NCI tumour cell line growth inhibition, 48 h
[1] = test system: A498
[2] = test system: SK-MEL-5
[3] = test system: NCI/ADR-RES
[4] = test system: CCRF-CEM
[5] = test system: MDA-N
[6] = test system: MDA-MB-435
[7] = test system: T47D
[8] = test system: OVCAR-8
[9] = test system: HCC 2998
[10] = test system: BT-549
[11] = test system: LOX IMVI
[12] = test system: K562
[13] = test system: HCT-116
[14] = test system: SN12C
[15] = test system: CAKI-1
[16] = test system: A549
[17] = test system: SK-MEL-28
[18] = test system: SK-MEL-2
[19] = test system: SR
[20] = test system: SF-268
[21] = test system: RPMI-8226
[22] = test system: MOLT-4
[23] = test system: SNB-75
[24] = test system: SW-620
[25] = test system: ACHN
[26] = test system: RXF 393
[27] = test system: IGROV-1
[28] = test system: OVCAR-5
[29] = test system: UACC-257
[30] = test system: SF-539
[31] = test system: Hs-578T
[32] = test system: U-251
[33] = test system: M14
[34] = test system: EKVX
[35] = test system: COLO 205
[36] = test system: HL-60
[37] = test system: TK-10
[38] = test system: 786-0
[39] = test system: SK-OV-3
[40] = test system: HCT-15
[41] = test system: HT-29
[42] = test system: SNB-19
[43] = test system: UO-31
[44] = test system: NCI-H23
[45] = test system: PC-3
[46] = test system: MCF7
[47] = test system: NCI-H522
[48] = test system: UACC-62
[49] = test system: OVCAR-4
[50] = test system: SF-295
[51] = test system: NCI-H460
[52] = test system: HOP-62
[53] = test system: Malme-3M
[54] = test system: OVCAR-3
[55] = test system: HOP-92
[56] = test system: MDA-MB-231
[57] = test system: NCI-H226
[58] = test system: KM12

CCOC(=O)C(NC(=O)CC)(Nc1ccc(F)cc1F)C(F)(F)F (configuration not stated)
GI50 [1]: > 100 µM (inactive)
GI50 [2]: > 100 µM (inactive)
GI50 [3]: > 100 µM (inactive)
GI50 [4]: > 100 µM (inactive)
GI50 [5]: 31.9 µM (inactive)
GI50 [6]: 40.7 µM (inactive)
GI50 [7]: > 100 µM (inactive)
GI50 [8]: > 100 µM (inactive)
GI50 [9]: > 100 µM (inactive)
GI50 [10]: > 100 µM (inactive)
GI50 [11]: > 100 µM (inactive)
GI50 [12]: 60.4 µM (inactive)
GI50 [13]: > 100 µM (inactive)
GI50 [14]: > 100 µM (inactive)
GI50 [15]: 1.31 µM (inactive)
GI50 [16]: > 100 µM (inactive)
GI50 [17]: > 100 µM (inactive)
GI50 [18]: > 100 µM (inactive)
GI50 [19]: > 100 µM (inactive)
GI50 [20]: > 100 µM (inactive)
GI50 [21]: > 100 µM (inactive)
GI50 [22]: > 100 µM (inactive)
GI50 [23]: 83 µM (inactive)
GI50 [24]: 85.7 µM (inactive)
GI50 [25]: > 100 µM (inactive)
GI50 [26]: > 100 µM (inactive)
GI50 [27]: > 100 µM (inactive)
GI50 [28]: > 100 µM (inactive)
GI50 [29]: > 100 µM (inactive)
GI50 [30]: > 100 µM (inactive)
GI50 [31]: 18.2 µM (inactive)
GI50 [32]: > 100 µM (inactive)
GI50 [33]: > 100 µM (inactive)
GI50 [34]: > 100 µM (inactive)
GI50 [35]: > 100 µM (inactive)
GI50 [36]: 34 µM (inactive)
GI50 [37]: > 100 µM (inactive)
GI50 [38]: > 100 µM (inactive)
GI50 [39]: > 100 µM (inactive)
GI50 [40]: > 100 µM
GI50 [41]: > 100 µM (inactive)
GI50 [42]: > 100 µM (inactive)
GI50 [43]: 11.8 µM (inactive)
GI50 [44]: > 100 µM (inactive)
GI50 [45]: > 100 µM (inactive)

CNC(=S)NN=C1NCCCN1
GI50 [1]: > 100 µM (inactive)
GI50 [2]: > 100 µM (inactive)
GI50 [3]: > 100 µM (inactive)
GI50 [4]: > 100 µM (inactive)
GI50 [5]: > 100 µM (inactive)
GI50 [46]: > 100 µM (inactive)
GI50 [6]: > 100 µM (inactive)
GI50 [7]: > 100 µM (inactive)
GI50 [8]: > 100 µM (inactive)
GI50 [9]: > 100 µM (inactive)
GI50 [10]: > 100 µM (inactive)
GI50 [11]: > 100 µM (inactive)
GI50 [47]: > 100 µM (inactive)
GI50 [48]: > 100 µM (inactive)
GI50 [12]: > 100 µM (inactive)
GI50 [49]: > 100 µM (inactive)
GI50 [13]: > 100 µM (inactive)
GI50 [15]: > 100 µM (inactive)
GI50 [50]: > 100 µM (inactive)
GI50 [16]: > 100 µM (inactive)
GI50 [17]: > 100 µM (inactive)
GI50 [51]: > 100 µM (inactive)
GI50 [18]: > 100 µM (inactive)
GI50 [19]: > 100 µM (inactive)
GI50 [20]: > 100 µM (inactive)
GI50 [21]: > 100 µM (inactive)
GI50 [22]: > 100 µM (inactive)
GI50 [23]: > 100 µM (inactive)
GI50 [24]: > 100 µM (inactive)
GI50 [25]: > 100 µM (inactive)
GI50 [52]: > 100 µM (inactive)
GI50 [26]: > 100 µM (inactive)
GI50 [27]: > 100 µM (inactive)
GI50 [28]: > 100 µM (inactive)
GI50 [29]: > 100 µM (inactive)
GI50 [30]: > 100 µM (inactive)
GI50 [53]: > 100 µM (inactive)
GI50 [31]: > 100 µM (inactive)
GI50 [32]: > 100 µM (inactive)
GI50 [33]: > 100 µM (inactive)
GI50 [34]: > 100 µM (inactive)
GI50 [35]: > 100 µM (inactive)
GI50 [36]: > 100 µM (inactive)
GI50 [37]: > 100 µM (inactive)
GI50 [38]: > 100 µM (inactive)
GI50 [39]: > 100 µM (inactive)
GI50 [40]: > 100 µM
GI50 [41]: > 100 µM (inactive)
GI50 [54]: > 100 µM (inactive)
GI50 [55]: > 100 µM (inactive)
GI50 [42]: > 100 µM (inactive)
GI50 [56]: > 100 µM (inactive)
GI50 [43]: > 100 µM (inactive)
GI50 [44]: > 100 µM (inactive)
GI50 [57]: > 100 µM (inactive)
GI50 [45]: > 100 µM (inactive)
GI50 [58]: > 100 µM (inactive)
